Test results reported in PubChem BioAssay (NCI).
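The concentration for 50% growth inhibition is given as GI50. TGI: total growth inhibition.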

What was measured:
Assay in all cases: NCI anticancer screen, dose series, 384-well format
786-0 renal = tested on: 786-0 renal
A549 NSCLC = tested on: A549 NSCLC
ACHN renal = tested on: ACHN renal
BT-549 breast = tested on: BT-549 breast
CAKI-1 renal = tested on: CAKI-1 renal
CCRF-CEM leukemia = tested on: CCRF-CEM leukemia
COLO 205 colon = tested on: COLO 205 colon
DU-145 prostate = tested on: DU-145 prostate
EKVX NSCLC = tested on: EKVX NSCLC
HCC-2998 colon = tested on: HCC-2998 colon
HCT-15 colon = tested on: HCT-15 colon
HOP-62 NSCLC = tested on: HOP-62 NSCLC
HOP-92 NSCLC = tested on: HOP-92 NSCLC
HS 578T breast = tested on: HS 578T breast
HT29 colon = tested on: HT29 colon
IGROV1 ovarian = tested on: IGROV1 ovarian
K-562 leukemia = tested on: K-562 leukemia
LOX IMVI melanoma = tested on: LOX IMVI melanoma
MCF7 breast = tested on: MCF7 breast
MDA-MB-435 melanoma = tested on: MDA-MB-435 melanoma
MDA-MB-468 breast = tested on: MDA-MB-468 breast
MOLT-4 leukemia = tested on: MOLT-4 leukemia
NCI-H226 lung = tested on: NCI-H226 lung
NCI-H522 lung = tested on: NCI-H522 lung
OVCAR-3 ovarian = tested on: OVCAR-3 ovarian
OVCAR-4 ovarian = tested on: OVCAR-4 ovarian
OVCAR-5 ovarian = tested on: OVCAR-5 ovarian
OVCAR-8 ovarian = tested on: OVCAR-8 ovarian
PC-3 prostate = tested on: PC-3 prostate
RPMI-8226 leukemia = tested on: RPMI-8226 leukemia
RXF 393 renal = tested on: RXF 393 renal
SF-268 CNS = tested on: SF-268 CNS
SF-539 CNS = tested on: SF-539 CNS
SK-MEL-2 melanoma = tested on: SK-MEL-2 melanoma
SK-MEL-28 melanoma = tested on: SK-MEL-28 melanoma
SK-OV-3 ovarian = tested on: SK-OV-3 ovarian
SN12C renal = tested on: SN12C renal
SNB-19 CNS = tested on: SNB-19 CNS
SNB-75 CNS = tested on: SNB-75 CNS
SR leukemia = tested on: SR leukemia
SW-620 colon = tested on: SW-620 colon
T-47D breast = tested on: T-47D breast
TK-10 renal = tested on: TK-10 renal
U251 glioblastoma = tested on: U251 glioblastoma
UACC-257 melanoma = tested on: UACC-257 melanoma
UACC-62 melanoma = tested on: UACC-62 melanoma
UO-31 renal = tested on: UO-31 renal

Cn1cc(-c2ccc3c(c2)CCN3C(=O)Cc2cccc(C(F)(F)F)c2)c2c(N)ncnc21
GI50 ([…]-0 renal): 3.99 µM | TGI (786-0 renal): 16.2 µM | GI50 (A549 NSCLC): 6.71 µM | TGI (A549 NSCLC): > 61.4 µM | GI50 (ACHN renal): 2.25 µM | TGI (ACHN renal): 19.8 µM | GI50 (BT-549 breast): 5 µM | TGI (BT-549 breast): 17.6 µM | GI50 (CAKI-1 renal): 2.14 µM | TGI (CAKI-1 renal): 12.8 µM | GI50 (CCRF-CEM leukemia): 2.75 µM | TGI (CCRF-CEM leukemia): 7.98 µM | GI50 (COLO 205 colon): 7.33 µM | TGI (COLO 205 colon): 21 µM | GI50 (DU-145 prostate): 4.16 µM | TGI (DU-145 prostate): 22.3 µM | GI50 (EKVX NSCLC): 3.03 µM | TGI (EKVX NSCLC): 16.2 µM | GI50 (HCC-2998 colon): 15.5 µM | TGI (HCC-2998 colon): 29.6 µM | GI50 (HCT-15 colon): 2.69 µM | TGI (HCT-15 colon): 17.6 µM | GI50 (HOP-62 NSCLC): 10.8 µM | TGI (HOP-62 NSCLC): 30.3 µM | GI50 (HOP-92 NSCLC): 3.52 µM | TGI (HOP-92 NSCLC): 13.3 µM | GI50 (HS 578T breast): 1.7 µM | TGI (HS 578T breast): 7.47 µM | GI50 (HT29 colon): 6.6 µM | TGI (HT29 colon): 19.6 µM | GI50 (IGROV1 ovarian): 5.29 µM | TGI (IGROV1 ovarian): 49.9 µM | GI50 (K-562 leukemia): 2.55 µM | TGI (K-562 leukemia): 11.4 µM | GI50 (LOX IMVI melanoma): 5.67 µM | TGI (LOX IMVI melanoma): 18.2 µM | GI50 (MCF7 breast): 5.82 µM | TGI (MCF7 breast): 20.3 µM | GI50 (MDA-MB-435 melanoma): 8.32 µM | TGI (MDA-MB-435 melanoma): 29.8 µM | GI50 (MDA-MB-468 breast): 2.86 µM | TGI (MDA-MB-468 breast): 10.7 µM | GI50 (MOLT-4 leukemia): 2.15 µM | TGI (MOLT-4 leukemia): 5.04 µM | GI50 (NCI-H226 lung): 3.82 µM | TGI (NCI-H226 lung): 18.1 µM | GI50 (NCI-H522 lung): 8.97 µM | TGI (NCI-H522 lung): 21.5 µM | GI50 (OVCAR-3 ovarian): 8.44 µM | TGI (OVCAR-3 ovarian): 21.6 µM | GI50 (OVCAR-4 ovarian): 11.2 µM | TGI (OVCAR-4 ovarian): 25.1 µM | GI50 (OVCAR-5 ovarian): 15.4 µM | TGI (OVCAR-5 ovarian): 29 µM | GI50 (OVCAR-8 ovarian): 5.73 µM | TGI (OVCAR-8 ovarian): 54.7 µM | GI50 (PC-3 prostate): 9.2 µM | TGI (PC-3 prostate): 22.6 µM | GI50 (RPMI-8226 leukemia): 4.44 µM | TGI (RPMI-8226 leukemia): 16 µM | GI50 (RXF 393 renal): 1.82 µM | TGI (RXF 393 renal): 8.86 µM | GI50 (SF-268 CNS): 9.26 µM | TGI (SF-268 CNS): 23.8 µM | GI50 (SF-539 CNS): 6.09 µM | TGI (SF-539 CNS): 19.2 µM | GI50 (SK-MEL-2 melanoma): 2.71 µM | TGI (SK-MEL-2 melanoma): 12.4 µM | GI50 (SK-MEL-28 melanoma): 12.5 µM | TGI (SK-MEL-28 melanoma): 37.3 µM | GI50 (SK-OV-3 ovarian): 1.63 µM | TGI (SK-OV-3 ovarian): 11.4 µM | GI50 (SN12C renal): 1.36 µM | TGI (SN12C renal): 8.59 µM | GI50 (SNB-19 CNS): 15.3 µM | TGI (SNB-19 CNS): 42.9 µM | GI50 (SNB-75 CNS): 3.52 µM | TGI (SNB-75 CNS): 14.2 µM | GI50 (SR leukemia): 1.47 µM | TGI (SR leukemia): 3.54 µM | GI50 (SW-620 colon): 10.6 µM | TGI (SW-620 colon): 22.9 µM | GI50 (T-47D breast): 2.91 µM | TGI (T-47D breast): 9.03 µM | GI50 (TK-10 renal): 7.63 µM | TGI (TK-10 renal): 26.1 µM | GI50 (U251 glioblastoma): 9.54 µM | TGI (U251 glioblastoma): 39.4 µM | GI50 (UACC-257 melanoma): 9.73 µM | TGI (UACC-257 melanoma): 31 µM | GI50 (UACC-62 melanoma): 5.44 µM | TGI (UACC-62 melanoma): 17.9 µM | GI50 (UO-31 renal): 6.72 µM | TGI (UO-31 renal): 28.4 µM
